In brackets after ≈: the same amount, converted by molar mass. *1 amine or outer side, *2 acyl side, *3 side chain or, on linkers, in order; H or OH if unused. Where a SMILES comes first, the peptide text is derived from it. Side-chain parts run from the residue outwards. [ ]: non-standard residue; d: D form. The star is where a group is joined. γGlu = O=C(O)[C@H](CCC(=O)[*:2])N[*:1]; Palmitoyl = CCCCCCCCCCCCCCCC(=O)*; GABA = NCCCC(=O)O
Legend:
physchem = format: physicochemical
Method: Prior to the testing of solubility and stability of a peptide batch, its content was determined. Therefore, two parameters were investigated, its purity (HPLC-UV) and the amount of salt load of the batch (ion chromatography). Since synthesized peptides contain primarily trifluoracetate anions, only anion chromatography was performed. The content was then calculated based on the assumption that peptide-related impurities are detected at the same UV-absorption rate as the target peptide, as well as that cations are not present in the sample.
Therefore, solutions from solid samples were prepared in different buffer systems with a concentration of 1.0 mg/mL compound based on the previously determined content. HPLC-UV was performed after 2 h of gentle agitation from the supernatant, which was obtained by 20 min of centrifugation at 4000 rpm. […] This analysis also served as t0 for the stability testing.
Instrument: Agilent 1100, column: X-Bridge C18 3.5 μm 2.1×150 mm (Waters), eluent: A: H20+500 ppm TFA/B: Methanol, flow: 0.55 ml/min, gradient: 0-5 min: 10-60% B; 5-15 min: 60-99% B; detection: 214 nm.

[1] = molecular target: T1, human GLP-1 receptor (hGLP-1 R) (Homo sapiens, UniProt P43220); test: cAMP response (HTRF) of HEK-293 cells stably expressing human GLP-1 receptor; format: cell-based; details: HEK-293 cells expressing human GLP-1 receptor, cAMP formation
T1 construct: expressed in transfected cells; host or cells: HEK-293
T1 sequence (P43220 24-463): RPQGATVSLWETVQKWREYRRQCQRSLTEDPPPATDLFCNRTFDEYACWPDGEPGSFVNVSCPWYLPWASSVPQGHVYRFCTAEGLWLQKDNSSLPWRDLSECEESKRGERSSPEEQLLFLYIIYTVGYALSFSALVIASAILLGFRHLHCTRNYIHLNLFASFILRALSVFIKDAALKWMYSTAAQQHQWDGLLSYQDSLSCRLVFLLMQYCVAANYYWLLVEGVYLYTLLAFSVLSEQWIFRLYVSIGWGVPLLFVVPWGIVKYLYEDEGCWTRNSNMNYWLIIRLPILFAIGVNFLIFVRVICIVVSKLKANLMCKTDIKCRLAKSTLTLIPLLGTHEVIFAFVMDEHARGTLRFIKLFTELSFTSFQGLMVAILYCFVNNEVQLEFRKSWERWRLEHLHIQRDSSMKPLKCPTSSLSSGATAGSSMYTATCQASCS
Summary of the method: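 Detached HEK-293 cells stably expressing the receptor were suspended in HBSS with 20 mM HEPES, 0.1% BSA and 2 mM IBMX. Test compound was added for 30 min at room temperature, and cellular cAMP was quantified by HTRF.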

| SMILES | solubility at 2 h (physchem; pH 4.5) [µg/mL] | solubility at 2 h (physchem; pH 7.4) [µg/mL] | EC50 [1] [nM] |
| --- | --- | --- | --- |
| CCCCCCCCCCCCCCCC(=O)N[C@@H](CCC(=O)NCCCC[C@H](NC(=O)[C@H](CO)NC(=O)[C@@H]1CCCN1C(=O)[C@@H]1CCCN1C(=O)[C@@H]1CCCN1C(=O)[C@H](C)NC(=O)CNC(=O)[C@H](CO)NC(=O)[C@H](CO)NC(=O)[C@@H]1CCCN1C(=O)CNC(=O)CNC(=O)[C@H](C)NC(=O)[C@H](CCCCN)NC(=O)[C@H](CC(C)C)NC(=O)[C@H](Cc1c[nH]c2ccccc12)NC(=O)[C@H](CCC(=O)O)NC(=O)[C@@H](NC(=O)[C@H](Cc1ccccc1)NC(=O)[C@H](CC(=O)O)NC(=O)[C@H](CCC(N)=O)NC(=O)[C@H](C)NC(=O)[C@H](CCCNC(=N)N)NC(=O)[C@H](CCCNC(=N)N)NC(=O)[C@H](CO)NC(=O)[C@H](CC(=O)O)NC(=O)[C@H](CCSC)NC(=O)[C@H](CCC(N)=O)NC(=O)[C@H](CCCCN)NC(=O)[C@H](CO)NC(=O)[C@H](CC(C)C)NC(=O)[C@H](CC(=O)O)NC(=O)[C@H](CO)NC(=O)[C@@H](NC(=O)[C@H](Cc1ccccc1)NC(=O)[C@@H](NC(=O)CNC(=O)[C@H](CCC(N)=O)NC(=O)[C@@H](CO)NC(=O)[C@@H](N)Cc1c[nH]cn1)[C@@H](C)O)[C@@H](C)O)[C@@H](C)CC)C(N)=O)C(=O)O [(60)] (H-H[dS]QGTFTSDLSKQMDSRRAQDFIEWLKAGGPSSGAPPPSK([γGlu-Palmitoyl])-NH2) | > 1000 | > 1000 |  |
| CCCCCCCCCCCCCCCC(=O)N[C@@H](CCC(=O)NCCCC[C@H](NC(=O)[C@H](CO)NC(=O)[C@@H]1CCCN1C(=O)[C@@H]1CCCN1C(=O)[C@@H]1CCCN1C(=O)[C@H](C)NC(=O)CNC(=O)[C@H](CO)NC(=O)[C@H](CO)NC(=O)[C@@H]1CCCN1C(=O)CNC(=O)CNC(=O)[C@H](C)NC(=O)[C@H](CCCCN)NC(=O)[C@H](CC(C)C)NC(=O)[C@H](Cc1c[nH]c2ccccc12)NC(=O)[C@H](CCC(=O)O)NC(=O)[C@@H](NC(=O)[C@H](Cc1ccccc1)NC(=O)[C@H](CC(=O)O)NC(=O)[C@H](CCC(N)=O)NC(=O)[C@H](C)NC(=O)[C@H](CCCNC(=N)N)NC(=O)[C@H](CCCNC(=N)N)NC(=O)[C@H](CO)NC(=O)[C@H](CCC(=O)O)NC(=O)[C@H](CCSC)NC(=O)[C@H](CCC(N)=O)NC(=O)[C@H](CCCCN)NC(=O)[C@H](CO)NC(=O)[C@H](CC(C)C)NC(=O)[C@H](CC(=O)O)NC(=O)[C@H](CO)NC(=O)[C@@H](NC(=O)[C@H](Cc1ccccc1)NC(=O)[C@@H](NC(=O)CNC(=O)[C@H](CCC(N)=O)NC(=O)[C@@H](CO)NC(=O)[C@@H](N)Cc1c[nH]cn1)[C@@H](C)O)[C@@H](C)O)[C@@H](C)CC)C(N)=O)C(=O)O [(63)] (H-H[dS]QGTFTSDLSKQMESRRAQDFIEWLKAGGPSSGAPPPSK([γGlu-Palmitoyl])-NH2) | > 1000 | > 1000 |  |
| CCCCCCCCCCCCCCCC(=O)N[C@@H](CCC(=O)NCCCC[C@H](NC(=O)[C@H](CO)NC(=O)[C@@H]1CCCN1C(=O)[C@@H]1CCCN1C(=O)[C@@H]1CCCN1C(=O)[C@H](C)NC(=O)CNC(=O)[C@H](CO)NC(=O)[C@H](CO)NC(=O)[C@@H]1CCCN1C(=O)CNC(=O)CNC(=O)[C@H](CC(N)=O)NC(=O)[C@H](CCCCN)NC(=O)[C@H](CC(C)C)NC(=O)[C@H](Cc1c[nH]c2ccccc12)NC(=O)[C@H](CCC(=O)O)NC(=O)[C@@H](NC(=O)[C@H](Cc1ccccc1)NC(=O)[C@H](CC(=O)O)NC(=O)[C@H](CCCCN)NC(=O)[C@H](C)NC(=O)[C@H](CCCNC(=N)N)NC(=O)[C@H](CCCNC(=N)N)NC(=O)[C@H](CCC(=O)O)NC(=O)[C@H](CC(=O)O)NC(=O)[C@H](CCSC)NC(=O)[C@H](CCC(N)=O)NC(=O)[C@H](CCCCN)NC(=O)[C@H](CO)NC(=O)[C@H](CC(C)C)NC(=O)[C@H](CC(=O)O)NC(=O)[C@H](CO)NC(=O)[C@@H](NC(=O)[C@H](Cc1ccccc1)NC(=O)[C@@H](NC(=O)CNC(=O)[C@H](CCC(N)=O)NC(=O)[C@@H](CO)NC(=O)[C@@H](N)Cc1c[nH]cn1)[C@@H](C)O)[C@@H](C)O)[C@@H](C)CC)C(N)=O)C(=O)O [(70)] (H-H[dS]QGTFTSDLSKQMDERRAKDFIEWLKNGGPSSGAPPPSK([γGlu-Palmitoyl])-NH2) | > 1000 | > 1000 |  |
| CCCCCCCCCCCCCCCC(=O)N[C@@H](CCC(=O)NCCCC[C@H](NC(=O)[C@H](CO)NC(=O)[C@@H]1CCCN1C(=O)[C@@H]1CCCN1C(=O)[C@@H]1CCCN1C(=O)[C@H](C)NC(=O)CNC(=O)[C@H](CO)NC(=O)[C@H](CO)NC(=O)[C@@H]1CCCN1C(=O)CNC(=O)[C@@H](C)NC(=O)[C@H](CCCNC(=N)N)NC(=O)[C@H](CCCCN)NC(=O)[C@H](CC(C)C)NC(=O)[C@H](Cc1c[nH]c2ccccc12)NC(=O)[C@H](CCC(=O)O)NC(=O)[C@@H](NC(=O)[C@H](Cc1ccccc1)NC(=O)[C@H](CC(=O)O)NC(=O)[C@H](CCC(N)=O)NC(=O)[C@H](C)NC(=O)[C@H](CCCNC(=N)N)NC(=O)[C@H](CCCNC(=N)N)NC(=O)[C@H](CO)NC(=O)[C@H](CCC(=O)O)NC(=O)[C@H](CCSC)NC(=O)[C@H](CCC(N)=O)NC(=O)[C@H](CCCCN)NC(=O)[C@H](CO)NC(=O)[C@H](CC(C)C)NC(=O)[C@H](CC(=O)O)NC(=O)[C@H](CO)NC(=O)[C@@H](NC(=O)[C@H](Cc1ccccc1)NC(=O)[C@@H](NC(=O)CNC(=O)[C@H](CCC(N)=O)NC(=O)[C@@H](CO)NC(=O)[C@@H](N)Cc1c[nH]cn1)[C@@H](C)O)[C@@H](C)O)[C@@H](C)CC)C(N)=O)C(=O)O [(76)] (H-H[dS]QGTFTSDLSKQMESRRAQDFIEWLKR[dA]GPSSGAPPPSK([γGlu-Palmitoyl])-NH2) | 952 (≈ 199 µM) | > 1000 |  |
| CCCCCCCCCCCCCCCC(=O)NCCCC(=O)NCCCC[C@H](NC(=O)[C@H](CO)NC(=O)[C@@H]1CCCN1C(=O)[C@@H]1CCCN1C(=O)[C@@H]1CCCN1C(=O)[C@H](C)NC(=O)CNC(=O)[C@H](CO)NC(=O)[C@H](CO)NC(=O)[C@@H]1CCCN1C(=O)CNC(=O)CNC(=O)[C@H](CO)NC(=O)[C@H](CCCCN)NC(=O)[C@H](CC(C)C)NC(=O)[C@H](Cc1c[nH]c2ccccc12)NC(=O)[C@H](CCC(=O)O)NC(=O)[C@@H](NC(=O)[C@H](Cc1ccccc1)NC(=O)[C@H](CC(=O)O)NC(=O)[C@H](CCC(N)=O)NC(=O)[C@H](C)NC(=O)[C@H](CCCNC(=N)N)NC(=O)[C@H](CCCNC(=N)N)NC(=O)[C@H](CO)NC(=O)[C@H](CCC(=O)O)NC(=O)[C@H](CCSC)NC(=O)[C@H](CCC(N)=O)NC(=O)[C@H](CCCCN)NC(=O)[C@H](CO)NC(=O)[C@H](CC(C)C)NC(=O)[C@H](CC(=O)O)NC(=O)[C@H](CO)NC(=O)[C@@H](NC(=O)[C@H](Cc1ccccc1)NC(=O)[C@@H](NC(=O)CNC(=O)[C@H](CCC(N)=O)NC(=O)[C@@H](CO)NC(=O)[C@@H](N)Cc1c[nH]cn1)[C@@H](C)O)[C@@H](C)O)[C@@H](C)CC)C(N)=O [(125)] (H-H[dS]QGTFTSDLSKQMESRRAQDFIEWLKSGGPSSGAPPPSK([GABA-Palmitoyl])-NH2) |  |  | 0.0108 |

— patent US9181305B2, “Exendin-4 peptide analogues” (SANOFI, priority 2012, dated 2015)
